Measured values from article PMC10700596 (Nature Communications, 2023).
“And” between values parts separate entries of the source, which are not always exact repeats. Equal entries are not always repeated.

Tests used:
EP4R [1] = target: T1, EP4R (Homo sapiens, UniProt P35408); test: cell-based
T1 construct: Tango fusion cassette (only 'tango' is printed); expressed in transfected cells; host or cells: HTLA cells (tTA-dependent luciferase reporter, β-arrestin2-TEV fusion)

EP4R [2] = target: T1, EP4R; test: PRESTO-Tango β-arrestin2 recruitment assay; format: cell-based
wild-type EP4R = wild-type EP4R (Homo sapiens, UniProt P35408); test: cell-based
Sequence of wild-type EP4R (P35408 whole entry): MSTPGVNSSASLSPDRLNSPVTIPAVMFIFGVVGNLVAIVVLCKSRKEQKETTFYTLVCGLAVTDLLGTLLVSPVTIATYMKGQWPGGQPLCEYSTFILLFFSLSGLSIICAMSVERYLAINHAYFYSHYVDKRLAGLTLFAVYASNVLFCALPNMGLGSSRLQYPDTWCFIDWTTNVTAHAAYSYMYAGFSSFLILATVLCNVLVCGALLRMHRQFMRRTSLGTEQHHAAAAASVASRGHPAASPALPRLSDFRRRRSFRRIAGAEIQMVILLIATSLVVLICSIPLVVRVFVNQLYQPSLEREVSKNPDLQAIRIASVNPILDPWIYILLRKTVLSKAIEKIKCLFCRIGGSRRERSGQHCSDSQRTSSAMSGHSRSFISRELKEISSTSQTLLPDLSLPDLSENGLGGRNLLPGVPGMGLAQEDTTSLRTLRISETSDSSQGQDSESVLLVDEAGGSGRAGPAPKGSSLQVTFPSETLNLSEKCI

EP4R [3] = target: T1, EP4R; test: biochemical; format: binding
[4] = target: T2, prostaglandin D2 (PGD2) receptor (Homo sapiens, UniProt Q9Y5Y4); test: Functional cAMP production assay, PGD2 receptor; format: cell-based; settings: replicate values
T2 sequence (Q9Y5Y4 1-395): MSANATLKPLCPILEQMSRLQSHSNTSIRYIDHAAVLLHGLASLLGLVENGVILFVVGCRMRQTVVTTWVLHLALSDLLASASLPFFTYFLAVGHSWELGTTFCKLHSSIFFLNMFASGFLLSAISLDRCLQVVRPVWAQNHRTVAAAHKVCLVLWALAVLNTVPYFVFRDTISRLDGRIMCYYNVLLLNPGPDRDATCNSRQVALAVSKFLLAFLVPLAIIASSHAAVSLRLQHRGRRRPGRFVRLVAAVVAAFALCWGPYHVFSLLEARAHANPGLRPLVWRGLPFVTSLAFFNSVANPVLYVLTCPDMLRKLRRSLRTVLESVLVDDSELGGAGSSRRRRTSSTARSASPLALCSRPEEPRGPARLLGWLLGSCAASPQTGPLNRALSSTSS

EP4R R316A mutant = target: T3, EP4R R316A mutant (Homo sapiens, UniProt P35408, R316A); test: BRET EP4R-arrestin interaction reporter assay, R316A mutant; format: cell-based; settings: agonist mode
T3 construct: expressed in transfected cells; host or cells: HEK cells, transient
T3 sequence (P35408 whole entry R316A): as the sequence (P35408 whole entry) above, with R316A counted along it
From the text: three independent experiments. Source data are provided as a Source Data file.
(1 picture or pasted object on this page, not shown here)

T1 sequence (P35408 whole entry, the tested form may be a part): as the sequence (P35408 whole entry) above

Which results are given for Cc1cc(C(=O)N[C@H]2CC[C@H](C(=O)O)CCC2(F)F)c(C)n1-c1ccccc1 [Compound 83, CC1=CC(C(=O)N[C@H]2CC[C@@H](CCC2(F)F)C(=O)O)=C(C)N1C=3C=CC=CC3]?
Kb (EP4R [1]): > 10 µM; PRESTO-Tango -logIC50 (EP4R [2]): unstable; IC50 (EP4R [2]; PRESTO-Tango IC50 (nM)): > 10000 nM; IC50 (wild-type EP4R): 3.39 µM; Ki (wild-type EP4R): 0.678 µM; Ki (EP4R [3]): > 10 µM

What does the source list for CCCCC[C@H](O)/C=C/[C@H]1C(=O)C[C@H](O)[C@@H]1C/C=C\CCCC(=O)O [PGD2]?
Prostaglandin D2 receptor response, drug alone ([4]; Log[Drug] -7): 0.6033 and 0.644 and 0.6961 and 0.6919; Prostaglandin D2 receptor response, drug alone ([4]; Log[Drug] -7.52): 0.797 and 0.93 and 0.9088 and 0.9243 and 0.8431 and 0.8125 and 0.8754 and 0.8197 and 0.9698 and 0.7088 and 0.7525 and 0.7962; Prostaglandin D2 receptor response, drug alone ([4]; Log[Drug] -8): 0.9354 and 1 and 1.006 and 1.122 and 0.9207 and 0.9404 and 0.8901 and 0.9489 and 0.8787 and 1.018 and 0.7261 and 1.1394; Prostaglandin D2 receptor response, drug alone ([4]; Log[Drug] -8.52): 0.9328 and 0.9897 and 1.022 and 0.9062 and 0.7756 and 1.181 and 0.8387 and 1.0826 and 1.099 and 1.025 and 0.9559 and 0.8192; Prostaglandin D2 receptor response, drug alone ([4]; Log[Drug] -9): 1.112 and 0.9671 and 1.1328 and 0.9787 and 1.031 and 1.15 and 0.9594 and 0.9527 and 0.952 and 0.9619 and 1.007 and 0.8917; Prostaglandin D2 receptor response, drug alone ([4]; Log[Drug] -9.52): 0.8441 and 1.142 and 1.077 and 0.9738 and 0.9345 and 0.9535 and 0.9143 and 1.094 and 0.8709 and 1.005 and 0.9652 and 0.9465; Prostaglandin D2 receptor response, drug alone ([4]; Log[Drug] -10): 1.003 (2×) and 1.01 (2×) and 1.029 and 0.9872 and 0.9954 and 1.0644 and 0.8654 and 0.9098 and 1.022 and 1.061; Prostaglandin D2 receptor response, drug alone ([4]; Log[Drug] -10.52): 0.9812 and 1.108 and 1.015 and 0.9787 and 0.8969 and 1.051 and 1.01 and 0.8703 and 1.02 and 1.075 and 0.9632 and 0.9209; Prostaglandin D2 receptor response, drug alone ([4]; Log[Drug] -11): 0.9785 and 0.8795 and 0.9671 and 1.005 and 0.997 and 1.114 and 0.9736 and 1.021 and 1.027 and 1.076 and 1.172 and 1.01

Which “EC80 of PGE2” value (EP4R [2]; agonist) does the source give for CCCCC[C@H](O)/C=C/[C@H]1[C@H](O)CC(=O)[C@@H]1C/C=C\CCCC(=O)O [PGE2, prostaglandin E2, reference compound] here?
The value was 0.008 µM.

And the “EC80 of PGE2” value (wild-type EP4R)?
The value was 0.008 µM.

What about the “activation of R316A mutant receptor” value (EP4R R316A mutant) of the same compound?
Its value is “no longer”.
